Results as given in patent US10364247B2, “Preparation and use of novel protein kinase inhibitors” (Ruijin Hospital Affiliated to Shanghai Jiao Tong University …, priority 2015, dated 2019).

Legend:
BaF3-NRASD12 = experiment: Oncogenic RAS dependent cell proliferation (CellTiter Glo); format: cell-based, murine; conditions: Mus musculus, BaF3-NRASD12 cells, 48 hours, read-out: NRas-BaF3 IC50
Procedure, shortened: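 BaF/3 cells transformed with NRASD12 or KRASD12, plus parental BaF/3, seeded at 5000 cells/well. Viability read by CellTiter-Glo luminescence, reagent diluted 1:4 in PBS, with vehicle and cell-free background controls.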

Wt-BaF3 = experiment: Parental Ba/F3 cell proliferation (CellTiter Glo); format: cell-based, murine; conditions: Mus musculus, parental BaF/3 cells, 48 hours
Procedure, shortened: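 Untransformed murine Ba/F3 cells, kept on 15% WEHI conditioned medium as IL3 source, were seeded at 5000 cells/well with compound. Viability was read by luminescence using CellTiter Glo diluted 1:4 in PBS, with no-cell background and vehicle controls.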

BaF3-TEL-TIE1 = target: T1, BaF3-TEL-TIE1 (Homo sapiens, UniProt P35590); experiment: Antiproliferative activity, kinase-dependent Ba/F3 cells (MTT/MTS); format: cell-based, murine; conditions: 48 hours, cell viability, read-out: tel-TIE1 IC50
T1 construct: fused on or other part: P41212 (Transcription factor ETV6)
T1 sequence (P35590 whole entry, change not shown, the tested form may be a part): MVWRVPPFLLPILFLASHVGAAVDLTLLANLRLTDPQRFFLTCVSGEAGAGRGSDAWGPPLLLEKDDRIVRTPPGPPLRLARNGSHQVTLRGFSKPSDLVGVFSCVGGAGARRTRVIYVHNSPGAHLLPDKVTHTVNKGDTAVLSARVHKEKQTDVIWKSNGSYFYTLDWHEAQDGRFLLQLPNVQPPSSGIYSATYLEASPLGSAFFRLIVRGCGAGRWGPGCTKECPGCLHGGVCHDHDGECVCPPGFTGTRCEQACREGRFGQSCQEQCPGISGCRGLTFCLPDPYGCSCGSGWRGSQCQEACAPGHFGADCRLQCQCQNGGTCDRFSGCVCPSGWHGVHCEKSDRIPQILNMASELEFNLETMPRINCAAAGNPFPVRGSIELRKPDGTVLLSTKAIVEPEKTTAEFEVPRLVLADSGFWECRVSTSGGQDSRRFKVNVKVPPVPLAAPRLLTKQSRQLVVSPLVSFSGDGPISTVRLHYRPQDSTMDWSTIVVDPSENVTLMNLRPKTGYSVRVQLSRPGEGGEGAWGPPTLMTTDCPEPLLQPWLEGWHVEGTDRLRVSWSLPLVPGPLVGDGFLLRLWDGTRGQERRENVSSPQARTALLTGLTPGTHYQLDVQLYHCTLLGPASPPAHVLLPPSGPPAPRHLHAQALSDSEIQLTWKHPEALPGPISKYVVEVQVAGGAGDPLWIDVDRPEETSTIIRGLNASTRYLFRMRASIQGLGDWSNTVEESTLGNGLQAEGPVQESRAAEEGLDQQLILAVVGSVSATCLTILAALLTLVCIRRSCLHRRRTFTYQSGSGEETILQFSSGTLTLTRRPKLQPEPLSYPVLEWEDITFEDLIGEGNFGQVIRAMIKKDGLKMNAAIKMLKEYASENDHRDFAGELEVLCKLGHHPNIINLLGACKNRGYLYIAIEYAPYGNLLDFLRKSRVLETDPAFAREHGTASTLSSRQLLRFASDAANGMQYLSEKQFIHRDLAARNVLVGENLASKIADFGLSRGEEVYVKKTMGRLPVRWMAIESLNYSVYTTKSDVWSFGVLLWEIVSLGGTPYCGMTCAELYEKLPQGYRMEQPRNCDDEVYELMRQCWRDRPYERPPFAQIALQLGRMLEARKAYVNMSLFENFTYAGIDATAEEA
Procedure, shortened: (§1)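 Murine Ba/F3 cells transformed with the indicated TEL- or EML4-fusion kinases, seeded at 20,000 cells/well in RPMI/10% FCS. Viability by MTT/MTS; IC50 as concentration reducing viability to 50% of DMSO vehicle control.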

BaF3-EML4-ALK = target: T2, BaF3-EML4-ALK (Homo sapiens, UniProt Q9UM73); experiment: as above; format: cell-based, murine; conditions: 48 hours, cell viability, read-out: EML4-ALK IC50
T2 construct: fused on or other part: Q9HC35 (Echinoderm microtubule-associated protein-like 4)
T2 sequence (Q9UM73 whole entry, change not shown, the tested form may be a part): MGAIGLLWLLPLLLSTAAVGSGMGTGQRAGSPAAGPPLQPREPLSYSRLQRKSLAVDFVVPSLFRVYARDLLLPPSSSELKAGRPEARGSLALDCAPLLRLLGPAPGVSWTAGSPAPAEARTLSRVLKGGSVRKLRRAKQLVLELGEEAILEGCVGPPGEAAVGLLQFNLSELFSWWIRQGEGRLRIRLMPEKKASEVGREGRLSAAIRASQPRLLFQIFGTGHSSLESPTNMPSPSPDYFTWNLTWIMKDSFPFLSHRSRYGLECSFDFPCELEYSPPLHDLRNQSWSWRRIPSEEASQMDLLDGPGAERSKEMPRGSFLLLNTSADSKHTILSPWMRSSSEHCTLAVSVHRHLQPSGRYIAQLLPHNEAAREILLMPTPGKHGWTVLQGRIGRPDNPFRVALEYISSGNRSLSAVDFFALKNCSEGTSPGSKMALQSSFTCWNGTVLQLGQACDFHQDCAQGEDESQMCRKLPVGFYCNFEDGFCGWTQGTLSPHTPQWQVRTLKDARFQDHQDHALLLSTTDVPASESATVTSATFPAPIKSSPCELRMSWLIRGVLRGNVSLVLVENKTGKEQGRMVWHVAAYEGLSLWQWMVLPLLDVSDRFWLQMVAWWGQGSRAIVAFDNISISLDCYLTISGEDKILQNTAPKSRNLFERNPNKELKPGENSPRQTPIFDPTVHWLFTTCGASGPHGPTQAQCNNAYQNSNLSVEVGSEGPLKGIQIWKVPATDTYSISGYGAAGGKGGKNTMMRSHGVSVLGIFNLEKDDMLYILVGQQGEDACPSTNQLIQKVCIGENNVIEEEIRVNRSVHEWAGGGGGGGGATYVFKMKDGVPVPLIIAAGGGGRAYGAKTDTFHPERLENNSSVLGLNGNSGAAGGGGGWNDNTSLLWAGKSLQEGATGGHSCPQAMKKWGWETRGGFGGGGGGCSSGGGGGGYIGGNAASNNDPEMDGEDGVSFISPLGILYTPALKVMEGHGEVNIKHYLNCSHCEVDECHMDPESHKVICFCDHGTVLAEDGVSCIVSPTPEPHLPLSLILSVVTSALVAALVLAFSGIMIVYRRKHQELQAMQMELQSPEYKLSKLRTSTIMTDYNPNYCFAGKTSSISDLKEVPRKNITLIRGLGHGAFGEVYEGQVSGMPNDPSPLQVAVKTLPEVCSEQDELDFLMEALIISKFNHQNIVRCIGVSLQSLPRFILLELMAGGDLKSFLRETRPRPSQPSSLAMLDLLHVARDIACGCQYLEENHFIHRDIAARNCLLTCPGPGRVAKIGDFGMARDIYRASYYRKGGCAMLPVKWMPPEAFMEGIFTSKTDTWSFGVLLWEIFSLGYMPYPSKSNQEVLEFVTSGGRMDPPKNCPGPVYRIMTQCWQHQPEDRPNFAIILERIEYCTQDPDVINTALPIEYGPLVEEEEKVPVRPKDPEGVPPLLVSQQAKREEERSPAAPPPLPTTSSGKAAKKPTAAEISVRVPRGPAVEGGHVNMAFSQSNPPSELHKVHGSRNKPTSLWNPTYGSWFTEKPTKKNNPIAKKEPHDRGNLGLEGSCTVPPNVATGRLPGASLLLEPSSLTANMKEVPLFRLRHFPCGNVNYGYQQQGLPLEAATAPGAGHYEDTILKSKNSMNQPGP
Procedure, shortened: as §1

BaF3-TEL-INSR = target: T3, BaF3-TEL-INSR (Homo sapiens, UniProt P06213); experiment: as above; format: cell-based, murine; conditions: 48 hours, cell viability, read-out: Tel-INSR IC50
T3 construct: fused on or other part: P41212 (Transcription factor ETV6)
T3 sequence (P06213 whole entry, stated change not applied, the tested form may be a part): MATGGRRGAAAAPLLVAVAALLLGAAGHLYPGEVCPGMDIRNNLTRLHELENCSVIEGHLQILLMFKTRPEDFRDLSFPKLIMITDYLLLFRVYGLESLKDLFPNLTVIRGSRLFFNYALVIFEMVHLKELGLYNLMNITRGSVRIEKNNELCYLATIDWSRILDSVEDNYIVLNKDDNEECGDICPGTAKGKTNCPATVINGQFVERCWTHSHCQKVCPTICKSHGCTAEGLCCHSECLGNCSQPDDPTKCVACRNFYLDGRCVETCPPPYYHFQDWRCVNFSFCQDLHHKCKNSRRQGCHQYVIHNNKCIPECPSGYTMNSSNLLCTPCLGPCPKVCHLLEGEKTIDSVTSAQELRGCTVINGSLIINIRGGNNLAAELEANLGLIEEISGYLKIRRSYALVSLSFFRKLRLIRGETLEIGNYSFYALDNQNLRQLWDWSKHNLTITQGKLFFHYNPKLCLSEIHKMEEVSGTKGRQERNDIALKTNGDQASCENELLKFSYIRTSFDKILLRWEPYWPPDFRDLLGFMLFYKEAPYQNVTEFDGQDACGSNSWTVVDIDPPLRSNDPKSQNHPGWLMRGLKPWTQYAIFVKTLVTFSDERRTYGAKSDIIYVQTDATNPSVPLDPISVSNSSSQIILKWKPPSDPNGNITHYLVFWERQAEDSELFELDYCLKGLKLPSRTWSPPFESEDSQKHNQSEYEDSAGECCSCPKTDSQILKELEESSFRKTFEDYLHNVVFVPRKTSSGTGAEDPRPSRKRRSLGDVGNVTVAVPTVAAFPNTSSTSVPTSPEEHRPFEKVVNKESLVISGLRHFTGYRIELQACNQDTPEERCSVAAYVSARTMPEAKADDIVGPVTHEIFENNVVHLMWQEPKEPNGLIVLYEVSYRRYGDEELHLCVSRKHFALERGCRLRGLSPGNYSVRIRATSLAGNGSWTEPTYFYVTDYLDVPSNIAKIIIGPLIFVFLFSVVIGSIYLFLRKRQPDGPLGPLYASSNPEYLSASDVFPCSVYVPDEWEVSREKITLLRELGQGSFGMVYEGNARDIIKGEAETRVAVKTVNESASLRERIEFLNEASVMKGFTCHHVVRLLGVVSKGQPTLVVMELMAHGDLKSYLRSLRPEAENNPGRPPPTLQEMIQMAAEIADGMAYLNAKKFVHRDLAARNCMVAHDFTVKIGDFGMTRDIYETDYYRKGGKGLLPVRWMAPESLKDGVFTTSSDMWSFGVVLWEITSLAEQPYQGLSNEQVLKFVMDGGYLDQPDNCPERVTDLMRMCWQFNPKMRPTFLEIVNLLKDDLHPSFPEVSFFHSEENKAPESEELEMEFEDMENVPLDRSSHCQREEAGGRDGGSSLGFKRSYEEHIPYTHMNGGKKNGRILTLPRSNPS
Procedure, shortened: as §1

BaF3-TEL-HCK = target: T4, BaF3-TEL-HCK (Homo sapiens, UniProt P08631); experiment: as above; format: cell-based, murine; conditions: 48 hours, cell viability, read-out: Tel-HCK IC50
T4 construct: fused on or other part: P41212 (Transcription factor ETV6)
Procedure, shortened: as §1

BaF3-TEL-LYN = target: T5, BaF3-TEL-LYN (Homo sapiens, UniProt P07948); experiment: as above; format: cell-based, murine; conditions: 48 hours, cell viability, read-out: tel-LYN IC50
T5 construct: fused on or other part: P41212 (Transcription factor ETV6)
T5 sequence (P07948 whole entry, change not shown, the tested form may be a part): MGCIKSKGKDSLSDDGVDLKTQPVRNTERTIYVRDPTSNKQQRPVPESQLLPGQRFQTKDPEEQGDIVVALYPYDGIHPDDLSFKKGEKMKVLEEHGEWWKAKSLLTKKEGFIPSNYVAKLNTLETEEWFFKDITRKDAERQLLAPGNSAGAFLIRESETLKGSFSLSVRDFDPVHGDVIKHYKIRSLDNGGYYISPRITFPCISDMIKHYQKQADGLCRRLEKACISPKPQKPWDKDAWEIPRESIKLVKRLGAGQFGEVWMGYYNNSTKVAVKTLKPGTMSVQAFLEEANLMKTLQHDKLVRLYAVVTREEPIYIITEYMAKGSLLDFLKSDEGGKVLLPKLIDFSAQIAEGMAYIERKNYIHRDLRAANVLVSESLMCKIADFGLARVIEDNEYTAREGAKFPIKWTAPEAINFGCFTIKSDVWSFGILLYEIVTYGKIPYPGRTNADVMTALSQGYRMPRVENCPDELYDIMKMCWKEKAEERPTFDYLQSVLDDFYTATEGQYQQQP
Procedure, shortened: as §1

KU812 cells = experiment: Human leukemia cell proliferation (CellTiter Glo); format: cell-based; conditions: compared to Imatinib and Ponatinib; FIG. 1
Description: Comparison of 50% inhibition concentration (IC50) of IA-9, imatinib and Ponatinib in KU812 leukemia cells.
IA-9 is a strong kinase inhibitor among the compounds of the invention. The activity of IA-9 to inhibit human leukemia cell proliferation was tested using CellTiter Glo Assay (Promega).

MV-4-11 = experiment: Proliferation of FLT3-ITD-driven human AML cells; format: cell-based; conditions: compared with Dasatinib; FIG. 5B
Description: (§2) A. Dose response curve of IA-9 in treating ITD cells is presented. ITD cells in the presence (ITD+) or absence of IL-3 (ITD−) were treated with 10 μM and 3-fold dilution series of IA-9. B. Dose response curve of IA-9 in treating MV-4-11 cells is shown. […].

[1] = tested on: Ba/F3 cells expressing FLT3-ITD oncoprotein (ITD); experiment: Proliferation of FLT3-ITD expressing Ba/F3 cells; format: cell-based, murine
Description: as §2

CML mice = experiment: Mouse CML model, Kaplan-Meier survival; format: in vivo; conditions: 10 mg/kg IA-9 by oral gavage twice a day vs vehicle and 50 mg/kg imatinib; FIG. 2
Description: The number (n) of mice treated in each group was indicated.
The activity of IA-9 to treat leukemia was tested in a mouse CML model as described ^4. Bone marrow cells from 5-fluorouracil (5-FU)-treated male BALB/c donor mice 5 days before were infected at a concentration of 1×10^6 cells/mL for 24 hours in a cocktail consisting of DMEM, 15% FCS, 5% WEHI-conditioned medium, 50% viral supernatant, 3 μg/mL polybrene, 2 mmol/L L-glutamine, PSA, 7 ng/mL IL-3, 12 ng/mL IL-6 and 56 ng/mL stem cell factor (SCF; R&D System). The infection was repeated once with freshly made retrovirus-containing cocktail as described above. The infected bone marrow cells were then washed once with phosphate-buffered saline and were injected into lethally irradiated (2 doses of 450 rads each dose administered 4 hours apart) syngeneic mice (female BALB/c; 6 to 8 weeks old) through the tail vein at 4×10^5 cells per mouse. Starting at […] bone marrow transplantation, the recipient mice were treated with vehicle (10% 1-methyl-2-pyrrolidinone:90% PEG-300), 50 mg/kg imatinib or 10 mg/kg IA-9 by oral gavage twice a day.

[2] = tested on: NCI-H1975 and HCC827 cell lines; experiment: Lung adenocarcinoma cell proliferation; format: cell-based; conditions: FIG. 4
Description: The ability of IA-9 to treat lung adenocarcinoma was tested using the NCI-H1975 and HCC827 cell lines. Both cell lines harbor at least EGFR and Ras mutations and are multi-drug resistant. Cell proliferation was tested using methods described herein.

`Cc1ccc(Nc2ncc3c(n2)N(C)CN(c2cc(NC(=O)c4cccc(C(F)(F)F)c4)ccc2C)C3)cn1` [IA-9, N-(4-methyl-3-(1-methyl-7-((6-methylpyridin-3-yl)amino)-1,4-dihydropyrimido[4,5-d]pyrimidin-3(2H)-yl)phenyl)-3-(trifluoromethyl)benzamide] was tested, and the IC50 (BaF3-NRASD12) was 380 nM, the IC50 (Wt-BaF3) was 5380 nM and the GI50 (BaF3-TEL-TIE1) was 519 nM. For the same compound, the GI50 (BaF3-EML4-ALK) was 1470 nM, the GI50 (BaF3-TEL-INSR) was 869 nM and the GI50 (BaF3-TEL-HCK) was 639 nM. For the same compound, the GI50 (BaF3-TEL-LYN) was 225 nM, the “inhibition of proliferation of KU812 cells” value (KU812 cells) was “stronger ability to inhibit proliferation of KU812 cells” and the “suppression of growth of MV-4-11” value (MV-4-11) was “much more effectively than did Dasatinib”. For the same compound, the “potential therapeutic window (ITD cells with vs without IL-3)” value ([1]; FLT3-ITD transformed cells, IL-3 rescue) was 80 fold, the “inhibition of proliferation/viability of ITD cells” value ([1]; absence of IL-3, FIG. 5A) was “effectively inhibits the proliferation/viability of ITD cells” and the “proliferation/survival of ITD cells on addition of IL-3” value ([1]; presence of IL-3, FIG. 5A) was “largely rescues the proliferation/survival of the ITD cells”. The “anti-leukemia activity (Kaplan-Meier survival)” value (CML mice) was “significantly stronger anti-leukemia activity” and the “reduction of proliferation of lung adenocarcinoma cells” value [2] was “reduce the proliferation of lung adenocarcinoma cells”.
